Nine substances from patent US11174301B2 (Takeda Pharmaceutical Company Limited, priority 2017, dated 2021) can be followed below.

Assay type in all cases: in vivo
Assay [1] deals with C57BL/6J mice. Briefly: Oral glucose tolerance test (2). The settings on record: 3 nmol/kg, s.c. 72 hours before glucose loading, 30 minutes after oral glucose, control group = 100. The procedure:
Oral Glucose Tolerance Test (2)
An oral glucose tolerance test (OGTT) was carried out using C57BL/6J mice with a […].

The subject of assay [2] is ferrets. Briefly: Morphine-induced acute emetic model in ferrets. As to conditions: for Ferrets in which the vomiting symptom was observed: 30 nmol/kg s.c., morphine 0.6 mg/kg s.c. 4 hours after administration, monitored 60 minutes, FIG. 6A; for Ferrets in which the vomiting symptom was observed / Vomiting symptom, morphine 120 hours after administration: n=4; for Vomiting symptom, morphine 120 hours after administration: 144 μg/kg (30 nmol/kg) s.c., morphine 0.6 mg/kg s.c. 120 hours after administration, FIG. 6B; for Morphine-induced emesis: 1 nmol/kg s.c. 30 minutes before morphine (0.6 mg/kg, s.c.). The procedure: 4. Effect of Subcutaneously Administered GIP Agonist Analogue in Morphine-Induced Acute Emetic Model
Male ferrets (4-month-old) were repeatedly used until 8-month-old. To evaluate the antiemetic effect, the GIP agonist analogues other than natural human GIP were subcutaneously administered 30 minutes before morphine administration. Natural human GIP was subcutaneously administered 5 minutes before morphine administration.
At the time of each of 4 hours, or 120 hours after administration, 0.6 mg/kg of morphine was subcutaneously administered. Up to 60 minutes after morphine administration, the condition of the ferrets was monitored to record the frequencies and time points of abdominal contraction motions, vomiting behaviors, licking with the tongue, and fidgety behavior occurring.

Assay [3] relates to ferrets. As to the kind of experiment: Cisplatin-induced delayed vomiting model in ferrets. The settings on record: monitored 72 hours. The procedure:
Up to 72 hours after cisplatin administration, the condition of the ferrets was monitored to record the frequencies and time points of abdominal contraction motions and vomiting behaviors occurring.

For assay [4], the system named is C57BL/6J mice. As to the kind of experiment: Oral glucose tolerance test (1). The settings on record: 0.03 nmol/kg, s.c. 30 minutes before glucose loading, control group = 100; for Rate of increase in blood glucose level (%) 30 min: 30 minutes after oral glucose; for Rate of increase in blood glucose level (%) 60 min: 60 minutes after oral glucose. The procedure:
Oral Glucose Tolerance Test (1)
An oral glucose tolerance test (OGTT) was carried out using C57BL/6J mice with a […].

For another assay, the system named is male C57BL/6J mice. As to the kind of experiment: Conditioned taste aversion test in mice (PYY-1119-induced). The protocol: Test Example 3: Conditioned Taste Aversion Test in Mice (FIG. 1A, FIG. 1B)
Additionally, the test compound or a solvent is subcutaneously administered simultaneously with PYY-1119.
On day 2, only a solvent is administered 10 minutes after presenting tap water.
On day 4, only tap water is presented.
On day 5, a test of selection from the bottles of saccharine water and tap water is carried out and preferential selection of saccharine water is evaluated.

The test system of assay [5] is ferrets. As to the kind of experiment: Cisplatin-induced acute vomiting model in ferrets. The procedure: Test Example 4: Vomiting Suppression Test in Ferrets
The ferret test was carried out by Nissei Bilis Co., Ltd. (Shiga prefecture, Japan). Cisplatin (10 mg/kg i.p.) was administered to male ferrets (10-week-old, n=6) to induce acute vomiting. […] The frequency of emesis (feeling queasy, vomiting) was monitored over a period of 8 hours after cisplatin administration.
Up to 6 hours after cisplatin administration, the condition of the ferrets was monitored to record the frequencies and time points of abdominal contraction motions and vomiting behaviors occurring.

The subject of a further assay is beagles. Briefly: PYY-1119-induced vomiting in dogs. As to conditions: for Frequency of vomiting: 2-hour observation.

Turning to “H-MeTyr-Aib-Glu-Gly-Thr-Iva-Ile-Ser-Asp-Tyr-Ser-Ile-Aib-Leu-Asp-Arg-Lys(Oda-GGGGG-)-Ala-Gln-Aib-Asn-Phe-Val-Asn-Trp-Iva-Leu-Ala-Gln-Arg-Pro-Ser-Ser-Gly-Ala-Pro-Pro-Pro-Ser-NH2 [Compound 349]”, the “Rate of increase in blood glucose level (%) 72 hr” value with C57BL/6J mice [1] worked out at 69%. In the assay on ferrets [2], the “Ferrets in which the vomiting symptom was observed” value is “none of the 4 ferrets” and the “Vomiting symptom, morphine 120 hours after administration” value is “suppression of the vomiting symptom was noted”.

In the case of “H-MeTyr-Aib-Glu-Gly-Thr-Iva-Ile-Ser-Asp-Tyr-Ser-Ile-Aib-Lys(Eda-GGGGG-)-Asp-Arg-Aib-Ala-Gln-Aib-Asn-Phe-Val-Asn-Trp-Iva-Leu-Ala-Gln-Arg-Pro-Ser-Ser-Gly-Ala-Pro-Pro-Pro-Ser-NH2 [Compound 341]”, the “Cisplatin-induced delayed vomiting symptom” value with ferrets [3] (144 μg/kg (30 nmol/kg) s.c. 34 hours after cisplatin 5 mg/kg i.p.) is “suppression of the vomiting symptom was noted”. Further, the “Rate of increase in blood glucose level (%) 72 hr” value in the assay with C57BL/6J mice [1] is recorded as 47%. Further, in the assay on ferrets [2], the “Ferrets in which the vomiting symptom was observed” value is given as “none of the 4 ferrets” and the “Vomiting symptom, morphine 120 hours after administration” value is “none of the 4 ferrets”.

Turning to “H-Tyr-Aib-Glu-Gly-Thr-Val-Val-Ser-Leu-Tyr-Ser-Ile-Aib-Leu-Asp-Arg-Gln-Ala-Gln-Aib-Glu-Phe-Val-Arg-Trp-Leu-Leu-Arg-Gly-Gly-Pro-Ser-Ser-Gly-Ala-Pro-Pro-Pro-Ser-Arg-NH2 [Compound 30]”, in the assay on C57BL/6J mice [4], the “Rate of increase in blood glucose level (%) 30 min” value (from here on “Rate of increase … (%) 30 min”) is listed as 96% and the “Rate of increase in blood glucose level (%) 60 min” value (“Rate of increase … (%) 60 min” below) is listed as 85%.

As to “H-Tyr-Aib-Glu-Gly-Thr-Val-Val-Ser-Leu-Tyr-Ser-Ile-Aib-Leu-Asp-Lys-Gln-Ala-Gln-Aib-Glu-Phe-Val-Lys-Trp-Aib-Leu-Lys-Gly-Gly-Pro-Ser-Ser-Gly-Ala-Pro-Pro-Pro-Ser-Lys-NH2 [Compound 42]”, in the assay on C57BL/6J mice [4], the “Rate of increase … (%) 30 min” value amounted to 70% and the “Rate of increase … (%) 60 min” value is recorded as 43%.

Consider “H-Tyr-Aib-Glu-Gly-Thr-Val-Val-Ser-Leu-Tyr-Ser-Ile-Aib-Leu-Asp-Lys-Gln-Ala-Gln-Aib-Glu-Phe-Val-Lys-Trp-Leu-Leu-Lys-Gly-Gly-Pro-Ser-Ser-Gly-Ala-Pro-Pro-Pro-Ser-Lys-NH2 [Compound 6]”, for which, in the assay with male C57BL/6J mice (1, 3, 10, 30 or 100 nmol/kg s.c. simultaneously with PYY-1119 (10 nmol/kg, s.c.), FIG. 1A), the PYY-1119-induced taste aversion entry is “suppressed the PYY-1119-induced taste aversion in a dose-dependent manner”. Besides, the Morphine-induced emesis entry with ferrets [2] (FIG. 3, FIG. 4) is “completely attenuated”. Also, in the assay with C57BL/6J mice [4], the “Rate of increase … (%) 30 min” value is 56% and the “Rate of increase … (%) 60 min” value was 31%. Further, in the assay with ferrets [5] (167 nmol/kg/hour subcutaneously injected from 1 hour before cisplatin (10 mg/kg i.p.), monitored 8 hours, FIG. 2A), the “Cisplatin-induced acute emesis (frequency of emesis)” value was “completely eliminated the acute emesis”. Moreover, the Frequency of vomiting with beagles (150 nmol/kg s.c. 10 minutes before PYY-1119 (10 μg/kg, s.c.), FIG. 7A) was 0 to 3 times.

Regarding “Methyl-Tyr-Aib-Glu-Gly-Thr-Iva-Ile-Ser-Asp-Tyr-Ser-Ile-Aib-Leu-Asp-Arg-Aib-Ala-Gln-Aib-Asn-Phe-Val-Asn-Trp-Iva-Leu-Ala-Gln-Arg-Pro-Ser-Ser-Gly-Ala-Pro-Pro-Pro-Ser-Arg-NH2 [Compound 113]”, the Morphine-induced emesis result with ferrets [2] (0.1 nmol/kg, FIG. 5) is “suppressed the morphine-induced emesis”. Besides, in the assay on C57BL/6J mice [4], the “Rate of increase … (%) 30 min” value came out at 48% and the “Rate of increase … (%) 60 min” value came to 11%.

As to “Methyl-Tyr-Aib-Glu-Gly-Thr-Iva-Ile-Ser-Asp-Tyr-Ser-Ile-Ala-Leu-Asp-Arg-Aib-Ala-Gln-Aib-Asn-Phe-Val-Asn-Trp-Leu-Leu-Ala-Gln-Arg-Pro-Ser-Ser-Gly-Ala-Pro-Pro-Pro-Ser-Arg-NH2 [Compound 104]”, in the assay with ferrets [2] (FIG. 3, FIG. 4), the Morphine-induced emesis result is reported as “suppressed the morphine-induced emesis”. Moreover, in the assay on C57BL/6J mice [4], the “Rate of increase … (%) 30 min” value came to 31% and the “Rate of increase … (%) 60 min” value was determined as 8%.

Consider “Methyl-Tyr-Aib-Glu-Gly-Thr-Phe-Ile-Ser-Asp-Tyr-Ser-Ile-Ala-Leu-Asp-Arg-Aib-His-Gln-Aib-Asn-Phe-Val-Asn-Trp-Iva-Leu-Ala-Gln-Arg-Pro-Ser-Ser-Gly-Ala-Pro-Pro-Pro-Ser-Arg-NH2 [Compound 117]”, for which, in the assay with ferrets [3] ([…] (0.3 nmol/kg) or 15 μg/kg (3 nmol/kg) s.c. 34 hours after cisplatin 5 mg/kg i.p., FIG. 2C), the “Latency of the vomiting symptom (time from cisplatin administration to initial occurrence)” value is listed as “delayed”. The PYY-1119-induced taste aversion result with male C57BL/6J mice (0.003, 0.01, 0.03, 0.1, 0.3 or 1 nmol/kg s.c. simultaneously with PYY-1119 (10 nmol/kg, s.c.), FIG. 1B) is “suppressed the PYY-1119-induced taste aversion in a dose-dependent manner”. Moreover, the Morphine-induced emesis result with ferrets [2] (FIG. 3, FIG. 4) was “suppressed the morphine-induced emesis”. Besides, in the assay with C57BL/6J mice [4], the “Rate of increase … (%) 30 min” value was determined as 51% and the “Rate of increase … (%) 60 min” value worked out at 16%. In addition, the “Cisplatin-induced acute vomiting symptom” value with ferrets [5] (0.15, 0.5, 1.5, 5 and 15 μg/kg (0.03, 0.1, 0.3, 1 and 3 nmol/kg) s.c. 1 hour before cisplatin 10 mg/kg i.p., monitored 6 hours, FIG. 2B) is “suppression of the vomiting symptom was noted in a dose-dependent manner”. In the assay with beagles (10 nmol/kg s.c. 1 hour before PYY-1119 (10 μg/kg, s.c.), FIG. 7B), this substance yielded a Frequency of vomiting of 0 to 3 times. Moreover, the “Average suppression rate of the frequency of vomiting” value in the assay on beagles (10 nmol/kg s.c. 1 hour before PYY-1119, versus medium group) was found to be 93%.

Regarding “Methyl-Tyr-Aib-Glu-Gly-Thr-Phe-Ile-Ser-Asp-Tyr-Ser-Ile-Ala-Leu-Asp-Arg-Ile-Ala-Gln-Gln-Asp-Phe-Val-Asn-Trp-Leu-Leu-Ala-Gln-Arg-Pro-Ser-Ser-Gly-Ala-Pro-Pro-Pro-Ser-Arg-NH2 [Compound 59]”, in the assay on C57BL/6J mice [4], the “Rate of increase … (%) 30 min” value is 41% and the “Rate of increase … (%) 60 min” value was 23%.
